Measurements taken from US11541059B2, “Heterocyclic compounds and uses thereof” (Infinity Pharmaceuticals, Inc., priority 2014, dated 2023).

What was measured:
GL-261 tumors = assay: GL-261 glioma model with or without temozolomide; type: in vivo, mouse; settings: 15 mg/kg QD PO from the start of treatment, vs vehicle
Protocol: TMZ was dosed IP 1×/day for 7 days.
Animals: C57 Albino mice (male) from Jackson Labs, n=80. Parameters Evaluated:
In life: Mice were dosed QD with Compound BB. Temozolomide was dosed QD IP, for 7 days. Tumor measurements and bodyweights were taken 2×/week, but caliper and xenogen measurements.
End point analysis: Tumors were cut in half. One half was cut in half again with ½ fixed in 10% NBF the other was frozen in OCT for frozen sections. The remaining half was processed to single cell suspension and evaluated by FACS.
PD satellite group—8 mice from the TMZ treated mice and 8 mice from the vehicle treated mice were sacrificed on day 7 post treatment. Tumors were processed to single cell suspension and evaluated by FACS.

tumor growth = assay: Tumor growth with Compound BB alone or co-administered with 5-FU (FIG. 35); type: in vivo
Cyps = assay: Time dependent Cyp inhibition; type: in vitro ADME
human T cells = assay: Concanavalin A-induced model for activation of human T cells (IFN-γ); type: cell-based; settings: isoform selective concentrations
[1] = tested on: TAMs / CD206 in LLC tumor brei; assay: Flow cytometry of tumor-associated myeloid cells, LLC tumor brei; type: in vivo, mouse
Protocol: Flow cytometry was performed to obtain a more extensive cellular subset analysis. In particular, the study examined T cell vs. Myeloid cells, Myeloid cell subsets, Regulatory vs. effector T cells, and Tumor markers vs. WBC (e.g., PD-L1 expression on tumor).
Different populations of tumor-associated myeloid cells can be identified by flow cytometry, e.g., monocytic immature myeloid cells (iMC),Granulocytic iMCs/Neutrophils, Tumor Associated Macrophages (TAMs), and Granulocytic MDSCs. The different populations, and panels for detecting MDSCs, are described in Cancer Discovery 2011; 1:54-67. Tumors may vary in their myeloid cell composition.

[2] = Stability in simulated gastric fluid; type: physicochemical
From the text: The phyiscochemical properties of Compound BB are drug-like, and suitable for use of the compound as a drug.

[3] = tested on: bone marrow cells differentiating into MDSCs (VEGF, ARG1); assay: Myeloid Derived Suppressor Cell differentiation assay; type: cell-based; settings: FIG. 24A, 24B
Protocol: A similar experiment was performed on bone marrow cells differentiating into MDSCs.

Lewis Lung Carcinoma = Lewis Lung Carcinoma model / LLC tumor brei model; type: in vivo, mouse
GL261-Luc tumors = assay: GL261-Luc murine glioblastoma subcutaneous model; type: in vivo, mouse; settings: 15 mg/kg QD, PO, FIG. 47A
Human hep viability = type: cell-based; settings: human hepatocytes
[4] = tested on: RANKL driven differentiation of osteoclasts from bone marrow macrophages; assay: Osteoclast differentiation assay (TRAP); type: cell-based, mouse; settings: TRAP positive cells, FIG. 17
Protocol: Long bones from young C57B6 mice were harvested and bone marrow was extruded by gentle lavage of the bone marrow cavities with a 28 gage needle. The cells were screened, and red blood cells were removed using red blood cell lysis buffer (Sigma). Bone marrow cells were differentiated to macrophages using 20 ng/ml mouse MCSF (RnD systems) for 3 days (RPMI and 20% FCS). The cell were washed with PBS, and lifted with Accutase for 10 minutes.
The bone marrow macrophage cells were plated at 150,000 cells per well in a 96 well plate in a MEM 10% FCS. […] Then 25 ng/ml mouse MCSF with or without mouse RANKL (100 ng/ml, RnD systems) was added for 6 days. Media changes (including drugs) were done at day 3 and day 5. The cells were then fixed and stained with the tartrate resistant acid phosphatase (TRAP) assay kit from Sigma according to the manufactures instructions. TRAP positive cells (osteoclasts and cells undergoing an osteoclastic differentiation) in a transect of the triplicate wells (at 20× […]) were manually counted by going through the widest part of each well.

[5] = tested on: differentiation of myeloid cells into M2 TAMs; assay: Murine M2 TAM differentiation (ARG1); type: cell-based, mouse; settings: FIG. 22A, 22B
From the text: High ARG1 (Arginase-1) levels indicate that myeloid cells are differentiating into M2 macrophages, so lower ARG1 levels relative to a control indicate interference with differentiation into M2 macrophages. Expression of Arginase-1 depletes the tumor microenvironment of arginine, thereby promoting T cell death and NK cell inhibition. Schmid et. al., Proceedings: AACR 103rd Annual Meeting 2012, Cancer Research: Apr. 15, 2012; Volume 72, Issue 8, Supplement 1. […] M2 TAMs promote cancer cell survival (FIG. 23).

MC38 tumors = assay: MC38 colon cancer model; type: in vivo, mouse
Protocol: In this model, a syngeneic colon cancer cell line is run subcutaneously. The experimental setup was as follows.
Female CR C57BL/6 mice were set up with 1×10^6 MC38 tumor cells in 0% Matrigel sc in flank. The cell injection volume was 0.05 ml per mouse. When tumors reached an average size of […], a pair match was made and treatment began. The tumor was measured by caliper biweekly.
The dosing volume was 5 mL/kg.
For all animals, blood was collected by terminal cardiac puncture under isoflurane anesthesia. The blood was processed for plasma. In addition, tumor samples were collected.
At study end, tumors were isolated, fixed in 10% neutral buffered formalin and embedded in paraffin for histologic analysis. Tumor sections from both vehicle and Compound BB monotherapy were cut for immunohistochemical analysis. T-cells within the tumor sections were identified utilizing a CD3-specific antibody via automated immunohistochemistry equipment (Ventana). Once stained, slides were digitalized via Aperio slide scanning equipment. Next, stained tumor sections were quantified via Definians software to assess the percentage of CD3 positive cells within each tumor. […] A trendline was added to the vehicle and Compound BB monotherapy graphs.

[6] = tested on: CD206 population in LLC tumors; assay: CD206 levels of macrophages in LLC tumors (FACS); type: in vivo, mouse; settings: alone and in combination with cyclophosphamide
Protocol: Tumors were harvested on the last day or if the vehicles reached approx. 3000 mm^3. Tumors were cut in half. One half was cut in half again with ½ fixed in 10% NBF, and the other was frozen in OCT for frozen sections. The remaining half was processed to single cell suspension and evaluated by FACS using two panels. Antibodies used for staining for FACS were as follows. Staining with CD4 and CD8a: CD45-AF700 (BDB560510) at 1.25 ug/ml; […] Staining with CD11b and GR-1: CD45-AF700 (BDB560510) at 1.25 ug/ml; […] CD45-AF700 (BDB560510) at 1.25 ug/ml; […] Staining with MDSC panel: CD45-AF700 (BDB560510) at 1.25 ug/ml; […] Ly6C APC at 2.5 ug/ml; and Ly6G FITC at 2.5 ug/ml.

C[C@H](NC(=O)c1c(N)nn2cccnc12)c1cc2cccc(C#Cc3cnn(C)c3)c2c(=O)n1-c1ccccc1 [Compound BB]
Tumor volume, GL-261 glioma model (GL-261 tumors): significant reduction in tumor volume
tumor growth (tumor growth; Compound BB alone (FIG. 35)): reduction in tumor growth
tumor growth (tumor growth; co-administration of Compound BB and 5-FU (FIG. 35)): further reduction
Time dep Cyp Inhibition @ 10 uM (Cyps): Neg
effect on IFN-γ (human T cells): little to no effect
Infiltrating TAMs ([1]; FIG. 38A): the number of infiltrating TAMs was decreased
CD206 staining (M2 polarized suppressive macrophages) ([1]; FIG. 39): CD206 staining was reduced
Stability in 38° simulated gastric fluid [2]: > 4 h
VEGF and ARG1 in MDSC differentiation assay [3]: suppressed both VEGF (FIG. 24A) and ARG1 (FIG. 24B)
CD206+ M2 polarized suppressive macrophages (Lewis Lung Carcinoma): reduces
TAMs (Lewis Lung Carcinoma): decreased
Tumor volume, GL-261 syngeneic glioma model (GL261-Luc tumors): reduced tumor volume
IC50 (Human hep viability): 10 to 25 µM
RANKL driven differentiation of osteoclasts from bone marrow macrophages [4]: prevents RANKL driven differentiation of osteoclasts
M2 TAM differentiation (ARG1 levels) [5]: inhibited M2 TAM differentiation much more effectively than PI3K-δ inhibitor
Intratumoral CD3+ T cells (MC38 tumors; MC38 tumors vs vehicle, FIG. 30): significantly more intratumoral CD3+ T cells
Tumor growth, MC38 colon cancer model (MC38 tumors; monotherapy, FIG. 29A): significantly inhibited tumor growth
CD206 population in LLC tumors [6]: decrease in the CD206 population
